Results taken from PMC9298037 (Chemmedchem, 2021).
Like-named read-outs stand apart in the source and are kept apart here.

Tests used:
MELK [1] = target: T1, MELK (Homo sapiens, UniProt Q14680)
MELK [2] = target: T1, MELK; test: biochemical; conditions: for inhibition at 10 µM: read-out: Inh. %, single-point screen at 10uM concentration, Table S1

T1 sequence (Q14680 whole entry): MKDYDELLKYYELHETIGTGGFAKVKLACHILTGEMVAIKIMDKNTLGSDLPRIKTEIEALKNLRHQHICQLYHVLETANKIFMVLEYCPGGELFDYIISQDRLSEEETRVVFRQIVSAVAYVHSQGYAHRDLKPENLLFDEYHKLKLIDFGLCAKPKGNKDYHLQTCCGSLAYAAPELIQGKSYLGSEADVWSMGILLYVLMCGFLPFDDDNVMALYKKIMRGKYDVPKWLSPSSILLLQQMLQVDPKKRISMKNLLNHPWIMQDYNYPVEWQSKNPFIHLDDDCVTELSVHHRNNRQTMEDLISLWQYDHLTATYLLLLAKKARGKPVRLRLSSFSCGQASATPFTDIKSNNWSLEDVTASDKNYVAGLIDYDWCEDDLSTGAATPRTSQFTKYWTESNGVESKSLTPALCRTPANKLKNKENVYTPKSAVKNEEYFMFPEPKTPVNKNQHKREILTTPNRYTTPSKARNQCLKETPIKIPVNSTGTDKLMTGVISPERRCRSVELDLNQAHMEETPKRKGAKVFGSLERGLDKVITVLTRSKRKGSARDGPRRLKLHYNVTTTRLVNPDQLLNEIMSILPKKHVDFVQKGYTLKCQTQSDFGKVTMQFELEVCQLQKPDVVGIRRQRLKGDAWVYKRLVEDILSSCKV

SMILES | IC50 (MELK [2]) | inhibition at 10 µM (MELK [2]) | further results
CCc1c2ccccc2cn2nc(-c3ccc(OC)cc3)nc12 [Compound 18, 10‐ethyl‐2‐(4‐methoxyphenyl)‐[1,2,4]triazolo[1,5‐b]isoquinoline] | 0.794 µM |  | inhibitory activity (in words) (MELK [1]; MELK): sub‐micromolar; activity boost (MELK [1]; over 3-methoxyphenyl counterpart 19): 2.5 fold; activity boost (MELK [1]; over 10-methyl counterpart 4): 4.5 fold
COc1cccc(-c2nc3c(C)c4ccccc4cn3n2)c1 [Compound 5, 2‐(3‐methoxyphenyl)‐10‐methyl‐[1,2,4]triazolo[1,5‐b]isoquinoline] | 4.93 µM | > 40% | 
COc1ccc(-c2nc3c(C)c4ccccc4cn3n2)cc1 [Compound 4, 2‐(4‐methoxyphenyl)‐10‐methyl‐[1,2,4]triazolo[1,5‐b]isoquinoline] | 3.67 µM | > 40% | 
c1ccc(-c2nc3c4ccccc4ccn3n2)cc1 [ID 1855, 2‐phenyl‐[1,2,4]triazolo[3,2‐a]isoquinoline] |  | > 40% | 
CCc1c2ccccc2cn2nc(-c3cccc(OC)c3)nc12 [Compound 19, 10‐ethyl‐2‐(3‐methoxyphenyl)‐[1,2,4]triazolo[1,5‐b]isoquinoline] | 2.04 µM | > 40% | activity boost (MELK [1]; in comparison to compound 5 (10-ethyl vs 10-methyl)): 2.5 fold
Cc1c2ccccc2cn2nc(-c3ccc(Cl)cc3Cl)nc12 [Compound 13, 2‐(2,4‐dichlorophenyl)‐10‐methyl‐[1,2,4]triazolo[1,5‐b]isoquinoline] | 24.1 µM |  | 
Cc1c2ccccc2cn2nc(-c3ccccn3)nc12 [Compound 11, 10‐methyl‐2‐(pyridin‐2‐yl)‐[1,2,4]triazolo[1,5‐b]isoquinoline] | 6.3 µM |  | 
CCc1c2ccccc2cn2nc(-c3ccc(Cl)cc3)nc12 [Compound 17, 2‐(4‐chlorophenyl)‐10‐ethyl‐[1,2,4]triazolo[1,5‐b]isoquinoline] | > 3.7 µM |  | 
Cc1c2ccccc2cn2nc(-c3ccc(C(F)(F)F)cc3)nc12 [Compound 8, 10‐methyl‐2‐(4‐(trifluoromethyl)phenyl)‐[1,2,4]triazolo[1,5‐b]isoquinoline] |  | > 40% | 
